Test results from patent US5204355A, “15-nitro-2β, 3β-dihydro- and 15-nitro-2β,3β,6,7-tetrahydrotabersonine derivatives, pharmaceutical compositions containing them and process for preparing same” (Richter Gedeon Vegyeszeti Gyar RT., priority 1990, dated 1993).

How the values were obtained:
[1] = system: TET-induced increase in the brain water content; test: TET-induced cerebral edema in rats (brain water content, protective effect); type: in vivo, inbred male Hannover Wistar rats; conditions: for Brain water content % ± S.E.M. / Protective effect %: 5 days TET 2.5 mg/kg; for protective action against TET-induced edema (in words): result in words
Text: The inhibitory effect on the cerebral edema of the compounds of formula (I) was studied by using the method of P. Linnee et al. "L'oedeme cerebral induit chez 1e rat par le triethyletain. Interet et limites comme methode d'etude de antioedemateux cerebraux", Ann. Pharmaceutiques francaises, 42, 431 (1984)) as described hereinafter in detail.
Inbred male Hannover Wistar rats weighing 180 to 200 g were used in these examinations. Before starting and during the treatment the animals were kept on normal laboratory diet and received tap water ad libitum.
The cerebral edema was induced by the daily administration of 2.5 mg/kg of triethyl-tin chloride (abbreviated hereinafter as TET) for 5 days. TET (Merck-Schuchardt, Darmstadt, Germany) was dissolved in distilled water under stirring and the stirring was continued during the treatment, too. TET was orally administered to the animals every day at 7 o'clock a.m.
Both the reference drugs and test compounds were homogenized in a 0.5 % carboxymethylcellulose solution by using an Ultra Turrax mixer and stirring was continued also during the administration. The first dose of the reference and test compounds, respectively, was orally 5 given following the TET treatment by 1 or 6 hours, respectively. The administration was always carried out in a volume of 0.5 ml/100 g of body-weight. Each group consisted of 7 animals; the control group received only the solvent of TET (distilled water) and the vehicle used for the compounds (0.5% carboxymethylcellulose solution) in an identical volume and at the same time as described above.
The animals were decapitated on the 5th day of the treatment at 2 hours after the last treatment (with the test compound). The whole brain was rapidly removed, washed with cold 0.9 % saline, the moisture was removed by a filter paper, the brains were placed on aluminum foils previously weighed and the wet weights of the brains (together with the aluminum foil of known weight) were determined with an accuracy of one tenth mg on an electric balance (Precisa 80/A, PAG Oerlikon AG, Zurich, Switzerland).
Subsequently the brains were dried at 90° C. for 92 hours, then the gross dry weight (dry weight of the brain together with the weight of the aluminum foil) was again measured. With the knowledge of the dry and wet weights, the brain water content, i.e. the effect of treatment by the compound was calculated and expressed in the percentage of the protective effect by using the following formula: [formula] wherein (TET-Ko) means the percentage of average brain water content of the animals treated with TET and vehicle;
(TET-V) means the percentage of average brain water content of the animals treated with TET and the compound; and
(Veh-Ko) means the percentage of average brain water content of the animals treated with distilled water and vehicle.
The deviations of changes in the brain water content (and dry weight) were analyzed by the means of Student's "t" trial.

Asphyxial anoxia = test: Antihypoxic effect on mice (asphyxial anoxia); type: in vivo, male mice (CFLP LATI); conditions: for ED50: Mus musculus, po, 1 hour before, protected = survival 30 % longer than control
Experimental: The antianoxic action of the target compounds was studied by using the following test method.
ANTIHYPOXIC EFFECT ON MICE
Male mice (CFLP LATI) weighing 24 to 26 g were used in these experiments. The test compounds were orally administered in a volume of 10 ml/kg one hour before starting the experiment.
The animals were orally treated with various doses of the test compounds after starving for 16 hours. One hour following the treatment the animals were placed in air-tight glass cylinders of 100 ml volume and the survival time of the animals was measured. Each group consisted of 10 animals. Animals, surviving longer by 30 % than the average survival time of the control group treated with placebo, were considered to be protected. The ED50 value (the dose effective in 50 % of the animals) was calculated from the percentage of surviving animals by using probit analysis.

Molecule: (5'α, 10α)-9, 10-dihydro-12'-hydroxy- 2'-methylethyl)-5'-benzylergotamine-3+, 6', 18-trione monomethanesulfonate [hydergine]
- Brain water content % ± S.E.M. ([1]; Experiment 6, 30 mg/kg oral): 79.97 ± 0.38%
- Protective effect % ([1]; Experiment 6, 30 mg/kg oral): 25.6%
- protective action against TET-induced edema (in words) [1]: did not produce any practically useful protective action

Molecule: COC1=C(OC)C(=O)C(CCCCCCCCCCO)=C(C)C1=O [idebenone, 5,6-dimethoxy-2-(10-hydroxydecyl)-3-methyl-p-benzoquinone]
- Brain water content % ± S.E.M. ([1]; Experiment 3, 100 μmol/kg oral): 79.75 ± 0.14%
- Protective effect % ([1]; Experiment 3, 100 μmol/kg oral): 14.0%
- Brain water content % ± S.E.M. ([1]; Experiment 6, 100 μmol/kg oral): 80.22 ± 0.16%
- Protective effect % ([1]; Experiment 6, 100 μmol/kg oral): 16.9%
- protective action against TET-induced edema (in words) [1]: did not produce any practically useful protective action

Molecule: CC[C@]12CCCN3CCc4c(n(c5ccccc45)[C@@](O)(C(=O)OC)C1)[C@@H]32 [vincamine, (+) -14β-hydroxy-14α-methoxycarbonyl-14, 15- -dihydroeburnamenine]
- Brain water content % ± S.E.M. ([1]; Experiment 1, 100 μmol/kg oral): 78.83 ± 0.15%
- Protective effect % ([1]; Experiment 1, 100 μmol/kg oral): 64.9%
- Brain water content % ± S.E.M. ([1]; Experiment 2, 100 μmol/kg oral): 78.70 ± 0.13%
- Protective effect % ([1]; Experiment 2, 100 μmol/kg oral): 59.6%
- Brain water content % ± S.E.M. ([1]; Experiment 4, 50 μmol/kg oral): 79.31%
- Protective effect % ([1]; Experiment 4, 50 μmol/kg oral): 31.6%

Molecule: CC[C@]12C=CCN3CC[C@@]4(c5cc([N+](=O)[O-])ccc5N[C@H]4[C@@H](C(=O)OC)C1)[C@@H]32 [compound 1703594, methyl-15-nitro-6,7-didehydro-(2β, 5α, 12β, 19α)-aspidospermidine-(15-nitro-2β, 3β-dihydrotabersonine)]
- Brain water content % ± S.E.M. ([1]; Experiment 4, 50 μmol/kg oral): 78.61%
- Protective effect % ([1]; Experiment 4, 50 μmol/kg oral): 82.9%
- ED50 (Asphyxial anoxia): 56.3 mg/kg

Molecule: CC[C@]12CCCN3CC[C@@]4(c5cc([N+](=O)[O-])ccc5N[C@H]4[C@@H](C(=O)OC)C1)[C@@H]32 [compound 1704369, methyl 15-nitro-(2β, 5α, 12β, 19α)-aspidospermidine-3α-carboxylate]
- protection against the edema-inducing effect of TET ([1]; 100 μmol/kg oral, summary of experiments in text): 100%
- Brain water content % ± S.E.M. ([1]; Experiment 1, 100 μmol/kg oral): 78.09 ± 0.09%
- Protective effect % ([1]; Experiment 1, 100 μmol/kg oral): 103.6%
- Brain water content % ± S.E.M. ([1]; Experiment 2, 100 μmol/kg oral): 78.15 ± 0.05%
- Protective effect % ([1]; Experiment 2, 100 μmol/kg oral): 99.3%
- Brain water content % ± S.E.M. ([1]; Experiment 4, 50 μmol/kg oral): 78.30%
- Protective effect % ([1]; Experiment 4, 50 μmol/kg oral): 105.9%
- protective action against TET-induced edema (in words) [1]: even more effective than the structurally similar vincamine

Molecule: CC[C@]12CCCN3CC[C@]4(C(=C(C(=O)OC)C1)Nc1ccc([N+](=O)[O-])cc14)[C@@H]32 [compound 1700374, 15-nitro-6,7-dihydrotabersonine]
- ED50 (Asphyxial anoxia): > 100 mg/kg
- protection against cerebral hypoxia (in words) (Asphyxial anoxia; result in words, up to 100 mg/kg p.o.): did not provide any protection

Molecule: NC(=O)CN1CCCC1=O [piracetam, 2-oxo-1-pyrrolidineacetic acid amide]
- Brain water content % ± S.E.M. ([1]; Experiment 5, 100 μmol/kg oral): 80.04 ± 0.28%

Molecule: CCOC(=O)[C@H]1C[C@]2(CC)CCCN3CC[C@@]4(c5cc([N+](=O)[O-])ccc5N[C@@H]14)[C@@H]32 [compound 1708009, ethyl 15-nitro-(2β, 5α, 12β, 19α)-aspidospermidine-3α-carboxylate]
- Brain water content % ± S.E.M. ([1]; Experiment 3, 50 μmol/kg oral): 79.44 ± 0.11%
- Protective effect % ([1]; Experiment 3, 50 μmol/kg oral): 32.5%
- protective action against TET-induced edema (in words) [1]: similarly effective
- ED50 (Asphyxial anoxia): 62 mg/kg
